Measured values reported in patent US10456550B2, “Device and method for controlling respiration during sleep” (Yeda Research and Development Co. Ltd., priority 2010, dated 2019).

What was measured:
humans = details: selective trigeminal irritant during nocturnal sleep; cited from earlier work
8-day-old rats = details: cited from earlier work
healthy subjects [1] = experiment: Respiration (inhale/exhale volume) after odorant presentation during sleep; assay type: in vivo, human; details: for inhale/exhale volume ratio following odor presentation in comparison to baseline: nasal respiration, across all sleep stages; for difference in respiration volume ratio across sleep stages: repeated measures ANOVA between sleep stages
From the text: (§1) Odorants were delivered with a computer-controlled air dilution olfactometer built according to principals described in Sobel et al. 1997; Johnson and Sobel 2007 which are incorporated herein by reference. Room air (3 Liter per minute) was mixed with the odorized air (3 liter per minute), resulting in odor concentration of 50%. The odorant line culminated at a small nasal mask that was subserved by a vacuum line pulling at the same rate of airflow. This provided an odor environment at the nose where odorant onset and offset occurred within 2 and 260 ms, respectively, with no visual, auditory, tactile, humidity, or thermal cues as to the alteration. In other words, the odorant stimulus was not a puff of air but rather a block of odorant embedded within an airflow that was constant for the duration of the study. The olfactometer itself was located in a room adjacent to the sleep room, and only the airflow tubing crossed into the sleep room via a wave guide within the stainless steel-coated wall. This provided additional separation from any possible visual or auditory stimulation associated with the olfactometer (e.g., LEDs on its front panel, etc.).
Overall respiration was computed as a reflection of changes in thoracic respiration and abdominal respiration circumference measured using 2 piezoelectric respiratory belt transducers (1132 Pneumotrace II, UFI).
Nasal and Oral respiration was measured using separate pneumotachometers (high-sensitivity flowmeter model #4719, Hans Rudolph, Inc.) that were attached in line with the vent ports of the mask. The pneumotachometer differential pressure was measured and converted to a voltage signal using a spirometer (ML141, ADInstruments) that delivered the voltage to the instrumentation amplifier.
The effects of odorants on 4 breath parameters were tested: breath mean airflow velocity, breath maximum airflow velocity, breath volume, and breath duration. Breath volume was calculated by the trapezoidal Reimann sum method (Johnson et al. 2006). Breaths were aligned in time by setting the point at which the breath passed from the expiratory phase to the inspiratory phase as time 0.
The experimenters observed the real-time polysomnography reading, and 20 min after they determined that the subject had entered stage 2 sleep, they initiated the experimental protocol that from this point on was computer controlled. Every 9, 12, or 15 min (randomized), the olfactometer generated a 5-, 10-, or 20-s (randomized) odor stimulus. […] Upon spontaneous morning wake-up, subjects again rated the intensity and pleasantness of the odorant and were then debriefed, paid, and released.
Averages of respiration measurements for inhalation, exhalation, and inhalation/exhalation ratio in the 30 breaths before odor onset were compared with the averages of respiration measurements for inhalation, exhalation, and inhalation/exhalation ratio for each one of 6 breaths after odor onset across sleep stages per odorant and for all odorants together. This analysis was corrected for the 6 comparisons using a Bonferroni correction. Respiratory measurements were compared between sleep stages per odorant in a repeated measures ANOVA.
The second alternative is that, although oral respiration typically reflects only; 4% of overall respiration in sleep (Fitzpatrick et al. 2003), the odorant may have changed the balance between nasal and oral breathing such that oral inspiration increased. Under this scenario, the increase in nasal exhalation reflected an increase in oral inspiration rather than the exhalation of air stored in the lungs. The above data could not discriminate between these alternatives because it relied on accurate measurement of nasal respiration alone. An additional control group of 10 subjects were studied using the odorant vetiver oil that in addition to the nasal mask were fitted with an oral mask in order to accurately measure oral and nasal respiration simultaneously.

healthy subjects [2] = experiment: Arousal and wake-up frequency after odorant presentation during sleep (polysomnography); assay type: in vivo, human; details: odor vs clean-air baseline, across sleep stages; 5-20 s stimuli, 50% odor concentration
From the text: as §1
Physiological measurements were recorded using a Power-Lab 16SP Monitoring System (ADInstruments) running off a Macintosh G4 computer using a sampling rate of 1000 Hz and a 50-Hz notch filter to remove electrical artifacts. For all measures dependent on electrodes, the scalp surface was cleaned with mild abrasive gel (Nuprep gel, Aurora) in order to assist in lowering impedance at the electrode site. For pasted to electrodes on the rest of the body, the skin surface was also first cleaned with alcohol. The following measures were recorded:
Electroencephalogram (EEG) was obtained through 2 circular electrodes ([…]) that were located at positions C3 and C4 according to the 10-20 system and were referenced to electrodes on the opposite mastoids (A2 and A1, respectively). Signals were amplified using a preamplifier (Octal Bio Amp ML138, ADInstruments).
Electromyogram (EMG) was obtained through 2 circular Ag/AgCl conductive adhesive electrodes (0.9 cm diameter). The electrodes were located bilaterally adjacent to the submentalis muscles. Signals were amplified using a preamplifier (Octal Bio Amp ML138, ADInstruments). […]
Blood oxygination (SpO2) was measured with an oxymeter (MLT321 SpO2 Finger Clip Sensor, ADInstruments) embedded within a finger clip placed on the left index finger.
Sleep stages were scored off-line according to the R and K criteria (Rechtschaffen and Kales 1968). […]
The experimenters observed the real-time polysomnography reading, and 20 min after they determined that the subject had entered stage 2 sleep, they initiated the experimental protocol that from this point on was computer controlled. […]

[3] = first breath after dispersion, worded 'may' in the description

SMILES | inhale/exhale volume ratio following odor presentation in comparison to baseline (healthy subjects [1]) | difference in respiration volume ratio across sleep stages (healthy subjects [1]) | effect of odor on arousal frequency (healthy subjects [2]) | effect of odor on wake-up frequency (healthy subjects [2]) | other results
O=C=O [CO2] | – | – | – | – | arousal frequency (humans): concentration-dependent increase in arousal frequency
CSSC [DMDS, dimethyl disulfide] | – | – | – | – | sniffing during sleep (8-day-old rats; 8-day-old rats presented with odorant): sniffing, including polypnea, occurred while the rats were asleep; arousal responses (8-day-old rats; sleeping 8-day-old rats): did not evoke reliable arousal responses
[NH4+].[NH4+].[S-2] [ammonium sulfide] | significantly smaller | no difference | no effect of odor | no effect of odor on wake-up | –
COc1cc(C=O)ccc1O [vanillin] | significantly smaller | no difference | no effect of odor on arousal | no effect of odor on wake-up | decrease of inhalation volume (healthy subjects [1]; [3]): about 23%; increase of exhalation volume (healthy subjects [1]; [3]): about 6%; reduction of nasal inhalation/exhalation volume ratio (healthy subjects [1]; first breath after odor onset, worded 'may' in the description): about 27%; reduction of nasal inhalation/exhalation volume ratio (healthy subjects [1]; sixth breath after odor onset, worded 'may' in the description): about 5%
